The results in this text go back to ChEMBL document CHEMBL3046370, “Synthesis and biological evaluation of , -unsaturated ketone as potential antifungal agents” (2009).

Assay [1] has as its system Candida albicans. Put plainly: Antifungal activity against fluconazole-resistant Candida albicans NCIM 3446 after 48 hr by broth dilution method. It counts as functional. The note with it: NCIM 3446, 48 h. On the technique in general: Broth dilution looks for growth in wells or tubes with falling amounts of substance.
Assay [2] has as its system Candida albicans. Put plainly: Antifungal activity against fluconazole-sensitive Candida albicans ATCC 10231 after 48 hr by broth dilution method. The class given is functional. The note with it: ATCC 10231, 48 h.

Values after ≈ are worked out from the molar mass of the structure shown.

As a reminder, the MIC is the lowest concentration that inhibits growth of the organism. In the case of `COc1ccc(/C=C/C(=O)c2ccc(Br)s2)cc1`, the results for the MIC against Candida albicans [1] and in the assay with Candida albicans [2] were 100 µg/mL (≈ 309 µM) and 50 µg/mL (≈ 155 µM), respectively.
In the same order, the values of `COc1ccc(C(=O)/C=C/c2ccc(OC)c(OC)c2)cc1` are 10 µg/mL (≈ 33.5 µM) and 20 µg/mL (≈ 67 µM).
In the same order, the values of `CSc1ccc(/C=C/C(=O)c2cccs2)cc1` are 5 µg/mL (≈ 19.2 µM) and 5 µg/mL (≈ 19.2 µM).
In the case of `COc1ccc(/C=C/C(=O)c2cccs2)cc1`, the MIC with Candida albicans [1] and with Candida albicans [2] was 20 µg/mL (≈ 81.9 µM) in each case.
Regarding `CSc1ccc(/C=C/C(=O)c2ccc(Br)cc2)cc1`, the MIC in the assay on Candida albicans [1] came out at 100 µg/mL (≈ 300 µM); with Candida albicans [2], 40 µg/mL (≈ 120 µM).
In the same order, the values of `CSc1ccc(/C=C/C(=O)c2ccccc2)cc1` are 40 µg/mL (≈ 157 µM) and 20 µg/mL (≈ 78.6 µM).
In the case of `CSc1ccc(/C=C/C(=O)c2ccc(Cl)cc2Cl)cc1`, the results for the minimal inhibitory concentration (MIC) against Candida albicans [1] and in the assay on Candida albicans [2] were 200 µg/mL (≈ 619 µM) and 50 µg/mL (≈ 155 µM), respectively.
`COc1ccc(C(=O)/C=C/c2ccc(SC)cc2)cc1`: the MIC was 20 µg/mL (≈ 70.3 µM) against Candida albicans [1] and 10 µg/mL (≈ 35.2 µM) against Candida albicans [2].
As for `CSc1ccc(/C=C/C(=O)c2ccc(Br)s2)cc1`, the MIC in the assay on Candida albicans [1] worked out at 50 µg/mL (≈ 147 µM); against Candida albicans [2], 40 µg/mL (≈ 118 µM).
In the same order, the values of `CSc1ccc(/C=C/C(=O)c2ccc(O)cc2)cc1` are 40 µg/mL (≈ 148 µM) and 20 µg/mL (≈ 74 µM).
In the same order, the values of `COc1ccc(/C=C/C(=O)c2ccc(Br)s2)cc1OC` are 100 µg/mL (≈ 283 µM) and 50 µg/mL (≈ 142 µM).
In the same order, the values of `CSc1ccc(/C=C/C(=O)c2ccc(F)cc2)cc1` are 8 µg/mL (≈ 29.4 µM) and 5 µg/mL (≈ 18.4 µM).
`OC(Cn1cncn1)(Cn1cncn1)c1ccc(F)cc1F` [FLUCONAZOLE]: the MIC in the assay with Candida albicans [1] amounted to 100 µg/mL (≈ 327 µM); in the assay with Candida albicans [2] it was 20 µg/mL (≈ 65.3 µM).
In the same order, the values of `O=C(/C=C/c1ccc(-c2ccccc2)cc1)c1ccc(Br)s1` are 250 µg/mL (≈ 677 µM) and 100 µg/mL (≈ 271 µM).
For the molecule `CSc1ccc(/C=C/C(=O)c2ccc(Cl)cc2)cc1`, the MIC in the assay with Candida albicans [1] is 20 µg/mL (≈ 69.3 µM); in the assay on Candida albicans [2], 10 µg/mL (≈ 34.6 µM).
Regarding `CSc1ccc(/C=C/C(=O)c2ccccc2O)cc1`, the MIC against Candida albicans [1] and in the assay with Candida albicans [2] was 20 µg/mL (≈ 74 µM) each time.
With `CSc1ccc(/C=C/C(=O)c2ccc(-c3ccccc3)cc2)cc1`, the MIC against Candida albicans [1] is 250 µg/mL (≈ 757 µM); with Candida albicans [2], 100 µg/mL (≈ 303 µM).
In the case of `COc1ccc(/C=C/C(=O)c2cccs2)cc1OC`, the MIC was determined as 20 µg/mL (≈ 72.9 µM) against Candida albicans [1] and 10 µg/mL (≈ 36.5 µM) in the assay on Candida albicans [2].
Regarding `CSc1ccc(/C=C/C(=O)c2cccc(O)c2)cc1`, the MIC in the assay on Candida albicans [1] stood at 40 µg/mL (≈ 148 µM); in the assay on Candida albicans [2], 20 µg/mL (≈ 74 µM).
In the same order, the values of `CSc1ccc(/C=C/C(=O)c2ccc([N+](=O)[O-])cc2)cc1` are 100 µg/mL (≈ 334 µM) and 50 µg/mL (≈ 167 µM).
In the same order, the values of `O=C(/C=C/c1ccc(-c2ccccc2)cc1)c1cccs1` are 250 µg/mL (≈ 861 µM) and 100 µg/mL (≈ 344 µM).
